Data on seven compounds can be found in patent US20240108637A1, “EPITE[…] AND/OR A STEROID SULFATASE INHIBITOR FOR USE IN TREATING OR IMPROVING AGE RELATED COGNITIVE IMPAIRMENT” (U[…] DE OLAVIDE, priority 2020, published 2024).

Assay [1] has as its system NL5901 strain expressing α-synuclein in muscle cells. In words: Parkinson's disease model: mobility of NL5901 strain. In kind it is in vivo, C. elegans. Conditions: 1 μg/ml. An excerpt:
We have studied the anatomical location of sul-2 expression from an extrachromosomal array and in single-copy insertion transgenic strains. […] There is no detectable expression in the germline in any transgenic strains (FIG. 2n and FIG. 10, 11a-b). ASE neurons are responsible for the attractive response of Na+ and Cl−, among others. Defects in odour sensing affect longevity. Therefore, we tested the ability of sul-2 mutants to respond to Cl− or Na+ and found no differences compared to wild type animals (FIG. 11c-d). Furthermore, sul-2 mutation increases the longevity of daf-10(m79), a long-lived mutant defective in sensory cilia formation25 (FIG. 11e). […] Reduction of sul-2 improves aging associated diseases in C. elegans Aging is considered the main risk factor for the onset of neurodegenerative disorders like Parkinson, Huntington, or Alzheimer's diseases. These disorders are caused by the progressive decline of proteostasis, which results in protein aggregation that compromises cellular functions and finally causes cell death. Germline-deficient C. elegans delay the symptoms derived from the proteotoxicity of ectopically expressed human β-amyloid (βA). We tested if sul-2 mutations or STX64 treatment improves the symptoms of C. elegans models for neurodegenerative diseases.

In the next assay the test system is C. elegans. Briefly: Lifespan assays in C. elegans. Format: in vivo, Caenorhabditis elegans. Conditions: for life span / longevity: wild type background, FIG. 4f-g, FIG. 13c-d. The procedure: F2 L4 animals were shifted to 25° C. (t=0). ES treatment started at L4 stage, control and treated plates were prepared fresh and animals transferred each three days until death. Animals lost or dead by non-physiological causes were censured. Survival curves were generated using the product-limit method of Kaplan and Meier. The log-rank (Mantel-Cox) test was used to evaluate differences in survival and […] lower than 0.05 were considered significant.

In assay [2] the test system is GMC101 strain expressing human β-amyloid in muscle. In words: Alzheimer's disease model: thermodependent paralysis of GMC101 strain. Format: in vivo, C. elegans. The settings on record: 1 μg/ml. An excerpt: In this model, GFP-labelled dopaminergic neurons die due to α-synuclein toxicity. […] We also tested two different strains of Alzheimer's disease (AD) in worms, where immobility is caused by expression of βA protein in muscle cells.

A further assay concerns daf-2(e1370). In words: Developmental arrest (dauer / L1) at 25° C. Format: in vivo, C. elegans. The settings on record: daf-2(e1370) background. As to the method:
Worms were growth at 16° C. until L4, then shifted to 25° C. considering this Day 0 of adulthood. The pumping was counted under the Leica stereoscope at 100× magnification for 30 seconds. Data display from two independent biological assays (n=30 per day). Two-tailed Mann-Whitney t-test, ***p=0.0006. e Thrashing in sul-2(gk187) is similar to wild type but is slightly lower in sul-2 (pv17) at 25° C. on day 1 of adulthood. On day 6 at 25° of adulthood, the trashing on sul-2(gk187) is lower than wild type and sul-(pv17), with no differences among these last strains. The population of sul-2(gk17) at day 6 seems to distribute into two different populations, one with almost no thrashing and other with values similar to wild type a sul-2(pv17). […] In this condition, all animals from daf-2(e1370); sul-2(pv17) double mutants arrest at L1 stage. Similarly, more than 50% of animals arrest in L1 stage in daf-2(m577); sul-2(pv17) background, while none of the single mutants show this phenotype. i Example of sul-2(pv17) larvae, dauer larval arrest of daf-2(e1370) or L1 arrest of daf-2(e1370); sul-2 (pv17) and daf-2(e1370); sul-2(gk187) at 25° C. Animals were grown up to L4 at 16° C., then shifted at 25° C., progeny were scored or imaged after 72 hours. Photographs were taken in a Leica scope.

Assay [3] has as its system mammalian model with intrahippocampal βA oligomers. The settings on record: local administration; previously reported; cited from earlier work.
The test system of assay [4] is aged mice. Briefly: Object recognition test in aged mice. Format: in vivo. Conditions: aged mice, vs vehicle-treated, FIG. 21. The procedure: (§1) The first, object recognition, after training with identical objects, tests the ability to identify different objects exposed together with a familiar one. When this happens, the object discrimination index is positive and higher than 0.1. […] For this purpose, during training, the entry latency to the preferred site is established and the aversive stimulus is administered.

Assay [5] deals with 16-month-old mice. Briefly: Y maze test. In kind it is in vivo. Conditions: aged animals, Y maze 6 minutes, FIG. 20. As to the method: (§2) The “Open Field” is a test where the mouse must explore an unknown space for 15 minutes. In this test, both mobility and habituation (cognitive parameter that measures the individual's ability to recognize the environment) can be studied. On the other hand, the “Y maze” test is a test where the mouse explores the maze for 6 minutes. This test evaluates the distance traveled as a measure of mobility and the ability to visit triplets of arms without repeating any of them as a sign of immediate memory.

In assay [6] the test system is aged mice. Briefly: Passive avoidance test in aged mice (STM and LTM). In kind it is in vivo. Conditions: aged mice, vs vehicle-treated, FIG. 21. The procedure: as §1
During short- and long-term memory tests (STM and LTM) if the mouse associated the preferred place to the aversive stimulus, the input latency increases with respect to training.

Assay [7] relates to 16-month-old mice. In words: Open Field test. In kind it is in vivo. Conditions: FIG. 20; for habituation ability: aged animals, Open Field 15 minutes. As to the method:
as §2

“Also recorded” adds a separate entry of the source. Where a name gives a salt, the structure may show the parent alone.

With `C[C@]12CC[C@H](O)CC1=CC[C@@H]1[C@@H]2CC[C@]2(C)C(=O)CC[C@@H]12` [DHEA], the mobility with age entry in assay [1] was “No effect is observed; also recorded: showed no effect”.

Regarding `C[C@]12CC[C@H]3[C@@H](CCC4=CC(=O)CC[C@@]43C)[C@@H]1CC[C@@H]2OS(=O)(=O)O` [TS, [(8R,9S,10R,13S,14S,17S)-10,13-dimethyl-3-oxo-1,2,6,7,8,9,11,12,14,15,16,17-dodecahydrocyclopenta[a]phenanthren-17-yl] hydrogen sulfate], the “life span / longevity” value with C. elegans (1 μg/ml) is “does not affect longevity; also recorded: do not affect”. In addition, the paralysis phenotype result in assay [2] (FIG. 3h, FIG. 4b) was “is ameliorate”; in assay [2] (normal NGM plates, FIG. 13a), “is reduced”. In assay [1], the mobility with age entry is recorded as “improved the mobility”. For the same compound, in the assay on daf-2(e1370), the L1 arrest entry is on record as “increase”.

As to dehidroepiandrosterone sulfate [DHEAS], in the assay with C. elegans (1 μg/ml), the “life span / longevity” value was “does not affect longevity; also recorded: do not affect”. Further, in assay [1], the mobility with age result is reported as “improved the mobility”. For the same compound, the L1 arrest entry in the assay with daf-2(e1370) is reported as “increase”.

Turning to `C[C@]12CC[C@H]3[C@@H](CCC4=CC(=O)CC[C@@]43C)[C@@H]1CC[C@@H]2O` [T, testosterone], the mobility with age entry was “No effect is observed” in [1] and “showed no effect” in assay [1] (listed as testosterone).

Regarding pregnenolone sulfate [PregS], the mobility with age entry in assay [1] was “No effect is observed”; in assay [1] (listed as pregnenolone sulfate), “showed no effect”.

As for `CCCCCCCCCCCCCC(=O)NCCc1ccc(OS(N)(=O)=O)cc1` [DU-14], in assay [3], the memory loss result is reported as “could alleviate memory loss”.

For the compound `C[C@]12CC[C@H]3[C@@H](CCC4=CC(=O)CC[C@@]43C)[C@@H]1CC[C@H]2OS(=O)(=O)O` [ES, N,N-diethylethanamine;[(8R,9S,10R,13S,14S,17R)-10,13-dimethyl-3-oxo-1,2,6,7,8,9,11,12,14,15,16,17-dodecahydrocyclopenta[a]phenanthren-17-yl]hydrogen sulfate], the “learning and memory, object recognition test” value was “showed significantly both learning (STM) and ability to store information (memory); also recorded: significant improvement in both learning (STM) and ability to store information (memory)” with aged mice [4]; “showed significantly both learning (STM) and ability to store information (memory)” with aged mice [4] (listed as E-S). Also, the immediate memory result with 16-month-old mice [5] is on record as “tend to improve”; in the assay with 16-month-old mice [5] (listed as E-S), “are improved”. Moreover, the lifespan entry is “significantly increased life span” with C. elegans (FIG. 15, treatment from L4 stage, 25° C., fer-15(b26) background, p<0.05 Log-Rank (Mantel-Cox)); “does not further increase” in the assay with C. elegans (sul-2(gk187) background, 1 μg/ml, FIG. 4f); “does not increase further” in the assay on C. elegans (sul-2(pv17) background, 1 μg/ml, FIG. 13c,d). Besides, the longevity entry with C. elegans (sul-2 mutants backgrounds) is reported as “did not further increase longevity”. The “life span / longevity” value in the assay on C. elegans (1 μg/ml) is “increases life span; also recorded: increased in longevity; also recorded: increases lifespan”. For the same compound, the paralysis phenotype entry was “is ameliorate” in assay [2] (FIG. 3h, FIG. 4b) and “is reduced” in assay [2] (normal NGM plates, FIG. 13a). In addition, the mobility with age entry in assay [1] was “improved the mobility; also recorded: better result”. Further, the “learning (STM) and memory (LTM), passive avoidance test” value in the assay on aged mice [6] was “showed significantly both learning (STM) and ability to store information (memory); also recorded: significant improvement in both learning (STM) and ability to store information (memory)”; in the assay on aged mice [6] (listed as E-S), “showed significantly both learning (STM) and ability to store information (memory)”. In the assay with daf-2(e1370), the L1 arrest entry was “increase”. Besides, the “motor ability (mobility)” value in the assay on 16-month-old mice [7] (16-month-old mice, Open Field mobility and Y maze distance traveled) is “tend to improve”. Also, the habituation ability entry is given as “tend to improve” with 16-month-old mice [7] and “are improved” with 16-month-old mice [7] (listed as E-S).
